Earlier results in publication PMC8490515, “Neuromedin B receptor stimulation of Cav3.2 T-type Ca^2+ channels in primary sensory neurons mediates peripheral pain hypersensitivity” (Theranostics, 2021).

Tested on: nociceptive reflex
Settings: intrathecal injection; ref [4], [5]; cited from earlier work
Text: Neuromedin B (Nmb) is a highly conserved and non-glycosylated polypeptide in mammals initially purified from porcine spinal cord that serves as a neuromodulator by paracrine or autocrine mechanisms. Nmb receptor (NmbR), which is located predominantly (but not exclusively) in peripheral tissues and organs and the central nervous system in mammals, has been identified as an endogenous receptor for Nmb. Acting through this receptor, Nmb mediates several behavioural effects and performs various biological functions, including regulating food intake, smooth muscle contraction, body temperat ...

Neuromedin B [Nmb]
nociceptive reflex responses: elicits nociceptive reflex responses
